Key:
[1] = target: T1, SACOL2570 (putative galactoside O-acetyltransferase) (Staphylococcus aureus, UniProt Q5HCZ5); assay: ITC, […] stoichiometry; type: binding
[2] = target: T1, SACOL2570 (putative galactoside O-acetyltransferase); assay: crystal structure; type: binding
crystal structure = target: the molecule itself; assay: crystal structure

CC(=O)SCCNC(=O)CCNC(=O)[C@H](O)C(C)(C)COP(=O)(O)OP(=O)(O)OC[C@H]1O[C@@H](n2cnc3c(N)ncnc32)[C@H](O)[C@@H]1OP(=O)(O)O [AcCoA]
Kd [1]: 460 ± 35 µM

CC(C)(COP(=O)(O)OP(=O)(O)OC[C@H]1O[C@@H](n2cnc3c(N)ncnc32)[C@H](O)[C@@H]1OP(=O)(O)O)[C@@H](O)C(=O)NCCC(=O)NCCS [CoA]
Kd [2]: 660 ± 13 µM

B1: putative galactoside O-acetyltransferase SACOL2570 from Staphylococcus aureus subsp. COL (enzyme)
chain: MTEKEKMLAEKWYDANFDQYLINERARAKDICFELNHTRPSATNKRKELIDQLFQTTTDNVSISIPFDTDYGWNVKLGKNVYVNTNCYFMDGGQITIGDNVFIGPNCGFYTATHPLNFHHRNEGFEKAGPIHIGSNTWFGGHVAVLPGVTIGEGSVIGAGSVVTKDIPPHSLAVGNPCKVVRKIDNDLPSETLNDETIK
modifications: selenomethionine (Se-Met-SACOL2570) in the protein of the apo crystals (PDB 3FTT) only
stoichiometry N (crystal structure): 3
